Patent publication US9174952B2, “Substituted 3-thiazoloamino-propionic acid derivatives and their use as pharmaceuticals” (SANOFI, priority 2011, dated 2015)

Target: T1, Recombinant human cathepsin A (Homo sapiens, UniProt P10619)
T1 construct: Recombinant human cathepsin A (residues 29-480, with a C-terminal 10-His tag); 10-His (C); purchased R&D Systems 1049-SE
T1 sequence (P10619 29-326 limits assumed): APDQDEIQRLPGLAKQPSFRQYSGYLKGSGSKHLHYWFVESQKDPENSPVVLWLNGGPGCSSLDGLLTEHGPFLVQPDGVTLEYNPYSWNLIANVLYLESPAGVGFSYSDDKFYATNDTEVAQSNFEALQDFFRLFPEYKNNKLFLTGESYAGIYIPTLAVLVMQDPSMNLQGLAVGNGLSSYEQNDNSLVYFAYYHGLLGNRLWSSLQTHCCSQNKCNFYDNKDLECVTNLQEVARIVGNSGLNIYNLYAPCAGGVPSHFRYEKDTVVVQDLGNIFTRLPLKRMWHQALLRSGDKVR
T1 sequence (P10619 327-480 limits assumed): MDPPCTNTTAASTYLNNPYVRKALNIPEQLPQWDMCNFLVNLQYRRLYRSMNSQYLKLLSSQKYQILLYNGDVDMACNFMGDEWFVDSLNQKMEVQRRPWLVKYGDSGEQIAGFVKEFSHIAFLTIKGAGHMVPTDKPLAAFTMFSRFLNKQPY
Experiment: Cathepsin A inhibitory activity
Format: biochemical
Settings: activated recombinant human cathepsin A 833 ng/ml, Bodipy FL-labeled bradykinin substrate 2 μM, pH 5.5, room temperature
Outline: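 Enzyme (residues 29-480, C-terminal His tag) pre-activated by cathepsin L at 37° C, then quenched with E-64. Compound preincubated 15 min at room temperature in 25 mM MES pH 5.5 with 5 mM DTT, then 2 μM Bodipy FL-bradykinin added for 15 min at 833 ng/ml enzyme. Product/substrate separated by microfluidic capillary electrophoresis; IC50 from multi-concentration inhibition.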

| SMILES | IC50 [µM] |
| --- | --- |
| O=C(O)C[C@H](NC(=O)c1csc(-c2cccc(Cl)c2)n1)c1ccc(Cl)cc1Cl [Example 91, (S)-3-{[2-(3-Chloro-phenyl)-thiazole-4-carbonyl]-amino}-3-(2,4-dichloro-phenyl)-propionic acid] | 1.91 |
| O=C(O)C[C@H](NC(=O)c1csc(-c2cccc(Cl)c2)n1)c1ccccc1F [Example 92, (S)-3-{[2-(3-Chloro-phenyl)-thiazole-4-carbonyl]-amino}-3-(2-fluoro-phenyl)-propionic acid] | 1.31 |
| O=C(O)C[C@H](NC(=O)c1csc(-c2cccc(Cl)c2)n1)c1ccccc1C(F)(F)F [Example 93, (S)-3-{[2-(3-Chloro-phenyl)-thiazole-4-carbonyl]-amino}-3-(2-trifluoromethyl-phenyl)-propionic acid] | 10.4 |
| O=C(O)C[C@H](NC(=O)c1csc(-c2cccc(Cl)c2)n1)c1cccc(F)c1 [Example 94, (S)-3-{[2-(3-Chloro-phenyl)-thiazole-4-carbonyl]-amino}-3-(3-fluoro-phenyl)-propionic acid] | 3.73 |
| O=C(O)C[C@H](NC(=O)c1nc(-c2ccccc2)cs1)c1cccc(Cl)c1Cl [Example 95, (S)-3-(2,3-Dichloro-phenyl)-3-[(4-phenyl-thiazole-2-carbonyl)-amino]-propionic acid] | 0.038 |
| O=C(O)C[C@H](NC(=O)c1nc(-c2ccccc2)cs1)c1ccc(Cl)cc1Cl [Example 96, (S)-3-(2,4-Dichloro-phenyl)-3-[(4-phenyl-thiazole-2-carbonyl)-amino]-propionic acid] | 0.254 |
| O=C(O)C[C@H](NC(=O)c1nc(-c2ccccc2)cs1)c1ccc(C(F)(F)F)cc1 [Example 97, (S)-3-[(4-Phenyl-thiazole-2-carbonyl)-amino]-3-(4-trifluoromethyl-phenyl)-propionic acid] | 0.406 |
| Cc1ccccc1[C@H](CC(=O)O)NC(=O)c1csc(-c2cccc(Cl)c2)n1 [Example 98, (S)-3-{[2-(3-Chloro-phenyl)-thiazole-4-carbonyl]-amino}-3-o-tolyl-propionic acid] | 0.66 |
| O=C(O)C[C@H](NC(=O)c1nc(-c2ccccc2)cs1)c1cccc(C(F)(F)F)c1 [Example 99, (S)-3-[(4-Phenyl-thiazole-2-carbonyl)-amino]-3-(3-trifluoromethyl-phenyl)-propionic acid] | 3.31 |
| O=C(O)C[C@H](NC(=O)c1csc(-c2ccc(Cl)cc2)n1)c1cccc(Cl)c1Cl [Example 100, (S)-3-{[2-(4-Chloro-phenyl)-thiazole-4-carbonyl]-amino}-3-(2,3-dichloro-phenyl)-propionic acid] | 0.686 |
| COc1cccc([C@H](CC(=O)O)NC(=O)c2csc(-c3ccc(Cl)cc3)n2)c1OC [Example 101, (S)-3-{[2-(4-Chloro-phenyl)-thiazole-4-carbonyl]-amino}-3-(2,3-dimethoxy-phenyl)-propionic acid] | 1.12 |
| O=C(O)C[C@H](NC(=O)c1csc(-c2ccc(Cl)cc2)n1)c1ccc(Cl)cc1Cl [Example 102, (S)-3-{[2-(4-Chloro-phenyl)-thiazole-4-carbonyl]-amino}-3-(2,4-dichloro-phenyl)-propionic acid] | 2.68 |
| O=C(O)[C@@H]1CN(C(=O)c2nc(-c3ccc(C(F)(F)F)cc3)cs2)C[C@H]1c1ccccc1 [Example 103, (3S,4R)-4-Phenyl-1-[4-(4-trifluoromethyl-phenyl)-thiazole-2-carbonyl]-pyrrolidine-3-carboxylic acid] | > 10 |
| O=C(O)C[C@H](NC(=O)c1csc(-c2ccc(Cl)cc2)n1)c1ccccc1C(F)(F)F [Example 104, (S)-3-{[2-(4-Chloro-phenyl)-thiazole-4-carbonyl]-amino}-3-(2-trifluoromethyl-phenyl)-propionic acid] | 5.39 |
| O=C(O)C[C@H](NC(=O)c1csc(-c2ccc(Cl)cc2)n1)c1cccc(F)c1 [Example 105, (S)-3-{[2-(4-Chloro-phenyl)-thiazole-4-carbonyl]-amino}-3-(3-fluoro-phenyl)-propionic acid] | 2.96 |
| COc1cccc([C@H](CC(=O)O)NC(=O)c2csc(-c3ccc(Cl)cc3)n2)c1 [Example 106, (S)-3-{[2-(4-Chloro-phenyl)-thiazole-4-carbonyl]-amino}-3-(3-methoxy-phenyl)-propionic acid] | 17.3 |
| O=C(N[C@@H](Cc1ccc(Cl)cc1)C(=O)O)c1csc(-c2ccc(C(F)(F)F)cc2)n1 [Example 107, (S)-3-(4-Chloro-phenyl)-2-{[2-(4-trifluoromethyl-phenyl)-thiazole-4-carbonyl]-amino}-propionic acid] | 3.7 |
| COc1ccc([C@H](CC(=O)O)NC(=O)c2csc(-c3ccc(Cl)cc3)n2)cc1 [Example 108, (S)-3-{[2-(4-Chloro-phenyl)-thiazole-4-carbonyl]-amino}-3-(4-methoxy-phenyl)-propionic acid] | 3.4 |

| SMILES | IC50 [µM] |
| --- | --- |
| Cc1ccccc1[C@H](CC(=O)O)NC(=O)c1csc(-c2ccc(Cl)cc2)n1 [Example 109, (S)-3-{[2-(4-Chloro-phenyl)-thiazole-4-carbonyl]-amino}-3-o-tolyl-propionic acid] | 0.121 |
| O=C(O)C[C@H](NC(=O)c1csc(-c2ccc(Cl)cc2)n1)c1ccccc1 [Example 110, (S)-3-{[2-(4-Chloro-phenyl)-thiazole-4-carbonyl]-amino}-3-phenyl-propionic acid] | 3.88 |
| Cc1ccccc1-c1nc(C(=O)N[C@@H](CC(=O)O)c2ccccc2C)cs1 [Example 111, (S)-3-o-Tolyl-3-[(2-o-tolyl-thiazole-4-carbonyl)-amino]-propionic acid] | 0.106 |
| Cc1ccccc1[C@H](CC(=O)O)NC(=O)c1csc(-c2ccc(C(F)(F)F)cc2)n1 [Example 112, (S)-3-o-Tolyl-3-{[2-(4-trifluoromethyl-phenyl)-thiazole-4-carbonyl]-amino}-propionic acid] | 1.31 |
| Cc1ccccc1-c1nc(C(=O)N[C@@H](CC(=O)O)c2ccccc2)cs1 [Example 113, (S)-3-Phenyl-3-[(2-o-tolyl-thiazole-4-carbonyl)-amino]-propionic acid] | 0.322 |
| Cc1ccccc1-c1nc(C(=O)NCC(C(=O)O)c2ccccc2)cs1 (stereo not drawn) [Example 114, 2-Phenyl-3-[(2-o-tolyl-thiazole-4-carbonyl)-amino]-propionic acid] | 7.04 |
| O=C(NCC(C(=O)O)c1ccccc1)c1csc(-c2ccccc2)n1 (stereo not drawn) [Example 115, 2-Phenyl-3-[(2-phenyl-thiazole-4-carbonyl)-amino]-propionic acid] | 4.88 |
| O=C(NCC(C(=O)O)c1ccccc1)c1csc(-c2cccc(Cl)c2Cl)n1 (stereo not drawn) [Example 116, 3-{[2-(2,3-Dichloro-phenyl)-thiazole-4-carbonyl]-amino}-2-phenyl-propionic acid] | 7.71 |
| O=C(O)CC(Cc1ccccc1)NC(=O)c1csc(-c2cccc(Cl)c2Cl)n1 (stereo not drawn) [Example 117, 3-{[2-(2,3-Dichloro-phenyl)-thiazole-4-carbonyl]-amino}-4-phenyl-butyric acid] | 2.75 |
| O=C(NCC(C(=O)O)c1ccccc1)c1csc(-c2ccccc2Cl)n1 (stereo not drawn) [Example 118, 3-{[2-(2-Chloro-phenyl)-thiazole-4-carbonyl]-amino}-2-phenyl-propionic acid] | 6.04 |
| O=C(O)CC(NC(=O)c1csc(-c2ccccc2Cl)n1)C1CCCCC1 (stereo not drawn) [Example 119, 3-{[2-(2-Chloro-phenyl)-thiazole-4-carbonyl]-amino}-3-cyclohexyl-propionic acid] | 0.68 |
| O=C(O)CC(Cc1ccccc1)NC(=O)c1csc(-c2ccccc2Cl)n1 (stereo not drawn) [Example 120, 3-{[2-(2-Chloro-phenyl)-thiazole-4-carbonyl]-amino}-4-phenyl-butyric acid] | 1.45 |
| O=C(NCC(C(=O)O)c1ccccc1)c1csc(-c2ccccc2F)n1 (stereo not drawn) [Example 121, 3-{[2-(2-Fluoro-phenyl)-thiazole-4-carbonyl]-amino}-2-phenyl-propionic acid] | 12.6 |
| O=C(O)CC(Cc1ccccc1)NC(=O)c1csc(-c2ccccc2F)n1 (stereo not drawn) [Example 122, 3-{[2-(2-Fluoro-phenyl)-thiazole-4-carbonyl]-amino}-4-phenyl-butyric acid] | 4.42 |
| O=C(NCC(C(=O)O)c1ccccc1)c1csc(-c2cccc(Cl)c2)n1 (stereo not drawn) [Example 123, 3-{[2-(3-Chloro-phenyl)-thiazole-4-carbonyl]-amino}-2-phenyl-propionic acid] | > 10 |
| O=C(O)CC(NC(=O)c1csc(-c2cccc(Cl)c2)n1)C1CCCCC1 (stereo not drawn) [Example 124, 3-{[2-(3-Chloro-phenyl)-thiazole-4-carbonyl]-amino}-3-cyclohexyl-propionic acid] | 3.42 |
| O=C(O)CC(Cc1ccccc1)NC(=O)c1csc(-c2cccc(Cl)c2)n1 (stereo not drawn) [Example 125, 3-{[2-(3-Chloro-phenyl)-thiazole-4-carbonyl]-amino}-4-phenyl-butyric acid] | 9.06 |
| O=C(O)CC(NC(=O)c1csc(-c2ccc(Cl)cc2)n1)C1CCCCC1 (stereo not drawn) [Example 126, 3-{[2-(4-Chloro-phenyl)-thiazole-4-carbonyl]-amino}-3-cyclohexyl-propionic acid] | 3.94 |
